The source of these data is PubChem BioAssay (NCI).

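The compound was tested at five concentrations on cells cultured in 96-well plates, with a 48-hour exposure period. At the TGI there is no net growth.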

Some test systems named below: TK-10 renal; SK-MEL-28 melanoma; CAKI-1 renal; SK-MEL-5 melanoma; MDA-MB-231 breast; RPMI-8226 leukemia; UO-31 renal; MCF7 breast; HOP-62 NSCLC; SF-295 CNS; MDA-N; OVCAR-3 ovarian; NCI-H460 lung; COLO 205 colon; MALME-3M melanoma; SK-OV-3 ovarian; HCC-2998 colon; A498 renal; SN12C renal.
Holding throughout (assay): inhibition of tumour cell growth, NCI panel, 48 h

For `C/C(=N/NC(=S)N(C)CCc1ccccn1)c1cnccn1`, the TGI with TK-10 renal stood at 14.8 µM; in the experiment with SK-MEL-28 melanoma it was 40.3 µM; in the experiment with CAKI-1 renal, 10.5 µM; with SK-MEL-5 melanoma it was 17.8 µM; in the experiment on MDA-MB-231 breast, 21.2 µM; with RPMI-8226 leukemia, 26.1 µM. Moreover, the TGI with UO-31 renal came to 0.272 µM; in the experiment on MCF7 breast, 30.6 µM; in the experiment on HOP-62 NSCLC it was 9.62 µM; in the experiment on SF-295 CNS, 4.65 µM; in the experiment with MDA-N, 20.9 µM; in the experiment with OVCAR-3 ovarian, 19 µM. In addition, the TGI was 13 µM with NCI-H460 lung; 21.8 µM in the experiment on COLO 205 colon; 5.11 µM with MALME-3M melanoma; 0.947 µM in the experiment with SK-OV-3 ovarian; 33.8 µM in the experiment on HCC-2998 colon; more than 100 µM in the experiment on A498 renal. This compound displayed a TGI with SN12C renal of 10 µM.

As to `CCOC(=O)/C(=C\c1ccnc2ccccc12)P(=O)(OCC)OCC`, the TGI in the experiment with TK-10 renal is 14 µM; with SK-MEL-28 melanoma it was 3.35 µM; with CAKI-1 renal it was 7.66 µM; in the experiment on SK-MEL-5 melanoma, 10.7 µM; in the experiment with MDA-MB-231 breast, 8.84 µM; with RPMI-8226 leukemia, 5.93 µM. The TGI in the experiment with MCF7 breast turned out to be 14.7 µM; in the experiment with HOP-62 NSCLC it was 5.91 µM; in the experiment with SF-295 CNS it was 10.5 µM; in the experiment with MDA-N, 6.74 µM; in the experiment with OVCAR-3 ovarian, 4.52 µM; with NCI-H460 lung, 8.72 µM. The TGI in the experiment on COLO 205 colon was found to be 4.63 µM; with MALME-3M melanoma, 3.71 µM; in the experiment with SK-OV-3 ovarian, 15.5 µM; in the experiment with HCC-2998 colon, 26.7 µM; in the experiment on A498 renal, 5.98 µM; in the experiment on SN12C renal, 9.19 µM.

Consider `CS(=O)(=O)N1CC(CCl)c2ccc(NCCN)cc21` (stereo unspecified), for which the TGI with TK-10 renal, in the experiment with SK-MEL-28 melanoma, with CAKI-1 renal, in the experiment on SK-MEL-5 melanoma, with MDA-MB-231 breast and in the experiment on RPMI-8226 leukemia was more than 100 µM throughout. Besides, the TGI in the experiment with UO-31 renal is more than 100 µM; with MCF7 breast it was more than 100 µM; in the experiment on HOP-62 NSCLC it was 32.1 µM; in the experiment on MDA-N it was more than 100 µM; in the experiment with OVCAR-3 ovarian, more than 100 µM; in the experiment on NCI-H460 lung, more than 100 µM. In addition, the TGI was more than 100 µM with COLO 205 colon; more than 100 µM in the experiment with MALME-3M melanoma; 87.9 µM with SK-OV-3 ovarian; more than 100 µM in the experiment on HCC-2998 colon; more than 100 µM in the experiment with A498 renal; more than 100 µM with SN12C renal.

With `CCOC(=O)NC(Nc1ccc(F)c(F)c1)(C(=O)OCC)C(F)(F)F` (stereo unspecified), the TGI in the experiment with TK-10 renal, in the experiment on SK-MEL-28 melanoma, in the experiment on CAKI-1 renal, in the experiment with SK-MEL-5 melanoma, in the experiment with MDA-MB-231 breast and in the experiment on RPMI-8226 leukemia was more than 100 µM each time. In addition, the TGI in the experiment with UO-31 renal, in the experiment with MCF7 breast, in the experiment on HOP-62 NSCLC, in the experiment on SF-295 CNS, in the experiment with MDA-N and with OVCAR-3 ovarian was more than 100 µM each time. In addition, the TGI in the experiment on NCI-H460 lung, with COLO 205 colon, in the experiment with MALME-3M melanoma, in the experiment with SK-OV-3 ovarian, in the experiment on HCC-2998 colon and in the experiment with A498 renal was more than 100 µM in each case. In the experiment with SN12C renal, this compound yielded a TGI of more than 100 µM.

Take `COc1ccc(/C=N/NC(=O)c2ccccc2Nc2ccccc2C(=O)N/N=C/c2ccc(OC)cc2)cc1`: the TGI in the experiment with TK-10 renal, in the experiment on SK-MEL-28 melanoma, with CAKI-1 renal, with SK-MEL-5 melanoma, in the experiment on MDA-MB-231 breast and in the experiment on RPMI-8226 leukemia was more than 100 µM each time. Also, the TGI in the experiment with UO-31 renal, in the experiment with MCF7 breast, in the experiment with HOP-62 NSCLC, with SF-295 CNS, in the experiment with MDA-N and in the experiment with OVCAR-3 ovarian was more than 100 µM throughout. Further, the TGI in the experiment on NCI-H460 lung, with COLO 205 colon, with MALME-3M melanoma, in the experiment with SK-OV-3 ovarian, with HCC-2998 colon and in the experiment on A498 renal was more than 100 µM each time. The TGI in the experiment on SN12C renal is more than 100 µM.

As for `COC(=O)CCCC(=O)NC1=C(Nc2ccccc2)C(=O)c2ccccc2C1=O`, the TGI is 49.7 µM in the experiment with TK-10 renal; 30.3 µM in the experiment with SK-MEL-28 melanoma; 44 µM with CAKI-1 renal; 43.8 µM in the experiment on MDA-MB-231 breast; 59.7 µM in the experiment with RPMI-8226 leukemia; 46.1 µM with UO-31 renal. For the same compound, the TGI in the experiment with MCF7 breast came to 32.1 µM; in the experiment on SF-295 CNS it was 33 µM; with MDA-N, 15 µM; with OVCAR-3 ovarian, 38 µM; with NCI-H460 lung, 33.7 µM; in the experiment on COLO 205 colon it was 35.7 µM. For the same compound, the TGI turned out to be 12.9 µM in the experiment on MALME-3M melanoma; 53.4 µM in the experiment with SK-OV-3 ovarian; 29.5 µM with HCC-2998 colon; 32.5 µM in the experiment on A498 renal; 45.1 µM in the experiment on SN12C renal.

Regarding `COc1cccc(CCn2c(N)c(C(=O)O)c3ccc([N+](=O)[O-])cc3c2=O)c1`, the TGI in the experiment on SK-MEL-28 melanoma was more than 100 µM; with CAKI-1 renal it was more than 100 µM; in the experiment with SK-MEL-5 melanoma it was more than 100 µM; with MDA-MB-231 breast, 72.8 µM; in the experiment on RPMI-8226 leukemia, more than 100 µM; with UO-31 renal it was more than 100 µM. Moreover, the TGI with MCF7 breast is 57.7 µM; in the experiment with HOP-62 NSCLC, more than 100 µM; in the experiment with SF-295 CNS, more than 100 µM; in the experiment on MDA-N, more than 100 µM; in the experiment with OVCAR-3 ovarian, more than 100 µM; in the experiment on NCI-H460 lung, more than 100 µM. The TGI was 45.9 µM in the experiment on COLO 205 colon; more than 100 µM with MALME-3M melanoma; more than 100 µM in the experiment on SK-OV-3 ovarian; more than 100 µM in the experiment on HCC-2998 colon; more than 100 µM with A498 renal; more than 100 µM in the experiment on SN12C renal.

For the compound `COC(=O)/C=C\[C@@H]1[C@H](C)N1S(=O)(=O)c1ccc(C)cc1` (stereo partly specified), the TGI in the experiment on TK-10 renal, with SK-MEL-28 melanoma, in the experiment with CAKI-1 renal, with SK-MEL-5 melanoma, with MDA-MB-231 breast and with RPMI-8226 leukemia was more than 100 µM in each case. Also, the TGI in the experiment with MCF7 breast, with HOP-62 NSCLC, with SF-295 CNS, in the experiment with MDA-N, in the experiment with OVCAR-3 ovarian and with NCI-H460 lung was more than 100 µM in each case. Also, the TGI in the experiment with COLO 205 colon, with MALME-3M melanoma, with SK-OV-3 ovarian, in the experiment with HCC-2998 colon, with A498 renal and with SN12C renal was more than 100 µM throughout.
